Data: PubChem BioAssay AID256 (DTP/NCI, 2004)
Values joined by “and” are separate entries in the source; they are usually repeats but may differ in a detail not shown here. Equal entries are not always repeated. Toxic doses and inconclusive results are not listed. How the source made its calls: active means survival T/C of 150% or more; inactive means T/C below 125% in these data.

Test system: CD2F1 mice, L1210 leukemia ip, survival T/C
Assay: NCI In Vivo Anticancer Drug Screen. Data for tumor model L1210 Leukemia (intraperitoneal) in CD2F1 (CDF1) mice
Conditions: higher = longer survival
In short: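 Tumor-bearing mice (transplanted tumor) were split into treated and vehicle control groups, and the measured endpoint of each treated group was divided by that of its vehicle controls.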

[1] = endpoint: mean survival time, dose: 100.0 mg/kg/injection, schedule: Q04DX003 (ip), vehicle: saline with Tween-80
[2] = endpoint: mean survival time, dose: 200.0 mg/kg/injection, schedule: Q04DX003 (ip), vehicle: saline with Tween-80
[3] = endpoint: mean survival time, dose: 400.0 mg/kg/injection, schedule: Q04DX003 (ip), vehicle: saline with Tween-80
[4] = endpoint: mean survival time, dose: 100.0 mg/kg/injection, schedule: Q01DX009 (ip), vehicle: saline with Tween-80
[5] = endpoint: mean survival time, dose: 200.0 mg/kg/injection, schedule: Q01DX009 (ip), vehicle: saline with Tween-80
[6] = endpoint: mean survival time, dose: 400.0 mg/kg/injection, schedule: Q01DX009 (ip), vehicle: saline with Tween-80
[7] = endpoint: mean survival time, dose: 100.0 mg/kg/injection, schedule: Q04DX002 (ip), vehicle: saline with Tween-80
[8] = endpoint: mean survival time, dose: 100.0 mg/kg/injection, schedule: Q01DX001 (ip), vehicle: saline with Tween-80
[9] = endpoint: mean survival time, dose: 200.0 mg/kg/injection, schedule: Q04DX002 (ip), vehicle: saline with Tween-80
[10] = endpoint: mean survival time, dose: 400.0 mg/kg/injection, schedule: Q04DX002 (ip), vehicle: saline with Tween-80
[11] = endpoint: mean survival time, dose: 100.0 mg/kg/injection, schedule: Q04DX003 (ip), vehicle: other
[12] = endpoint: mean survival time, dose: 200.0 mg/kg/injection, schedule: Q04DX003 (ip), vehicle: other
[13] = endpoint: mean survival time, dose: 400.0 mg/kg/injection, schedule: Q04DX003 (ip), vehicle: other
[14] = endpoint: mean survival time, dose: 100.0 mg/kg/injection, schedule: Q04DX003 (ip), vehicle: saline
[15] = endpoint: mean survival time, dose: 200.0 mg/kg/injection, schedule: Q04DX003 (ip), vehicle: saline
[16] = endpoint: mean survival time, dose: 400.0 mg/kg/injection, schedule: Q04DX003 (ip), vehicle: saline

Measured: T/C

Cn1c(=O)c2[nH]c(-c3ccc(Cl)c(Cl)c3)nc2n(C)c1=O
inactive: endpoint: mean survival time, dose: 12.5 mg/kg/injection, schedule: Q01DX005 (ip), vehicle: other 101 % of control | endpoint: mean survival time, dose: 25.0 mg/kg/injection, schedule: Q01DX005 (ip), vehicle: other 92 % of control | endpoint: mean survival time, dose: 50.0 mg/kg/injection, schedule: Q01DX005 (ip), vehicle: other 92 % of control | endpoint: mean survival time, dose: 100.0 mg/kg/injection, schedule: Q01DX005 (ip), vehicle: other 87 % of control | endpoint: mean survival time, dose: 200.0 mg/kg/injection, schedule: Q01DX005 (ip), vehicle: other 89 % of control

Cc1[nH]c(=O)[nH]c(=O)c1-n1nnc2ccccc2c1=O
inactive: [1] 97 % of control | [2] 97 % of control | [3] 95 % of control

Cc1c(Cl)cccc1NC(=O)Oc1ccc(Cl)cc1Cl
inactive: [1] 95 % of control | [2] 97 % of control

CSC(SC)=C(C#N)C#N
inactive: endpoint: mean survival time, dose: 12.5 mg/kg/injection, schedule: Q04DX002 (ip), vehicle: saline 102 % of control | endpoint: mean survival time, dose: 25.0 mg/kg/injection, schedule: Q04DX002 (ip), vehicle: saline 94 % of control | endpoint: mean survival time, dose: 50.0 mg/kg/injection, schedule: Q04DX002 (ip), vehicle: saline 92 % of control

C=C(Cl)CSCCCS
inactive: endpoint: mean survival time, dose: 100.0 mg/kg/injection, schedule: Q04DX003 (ip), vehicle: acetone 111 % of control | endpoint: mean survival time, dose: 200.0 mg/kg/injection, schedule: Q04DX003 (ip), vehicle: acetone 116 % of control | endpoint: mean survival time, dose: 400.0 mg/kg/injection, schedule: Q04DX003 (ip), vehicle: acetone 122 % of control

CCCCN(c1ccccc1)S(=O)(=O)c1ccc(Br)cc1
inactive: [4] 97 % of control | [1] 98 % of control | [5] 95 % of control | [2] 102 % of control | [6] 97 % of control | [3] 101 % of control

CC(=O)N1NC2C(=O)N(C3CCCCC3)CC2C1c1ccccc1 (centres undefined)
inactive: [4] 93 % of control | [5] 100 % of control | [6] 93 % of control

CCCCSCCN
inactive: endpoint: mean survival time, dose: 25.0 mg/kg/injection, schedule: Q04DX002 (ip), vehicle: saline with Tween-80 94 % of control | endpoint: mean survival time, dose: 50.0 mg/kg/injection, schedule: Q04DX002 (ip), vehicle: saline with Tween-80 94 % of control | [7] 102 % of control

CCCCOCN(COCCCC)c1ccccc1
inactive: [8] 109 % of control | endpoint: mean survival time, dose: 200.0 mg/kg/injection, schedule: Q01DX001 (ip), vehicle: saline with Tween-80 103 % of control | endpoint: mean survival time, dose: 400.0 mg/kg/injection, schedule: Q01DX001 (ip), vehicle: saline with Tween-80 97 % of control

C/C=C\c1ccc(OCCOC(=O)Nc2cc(Cl)c(OC)cc2OC)c(OC)c1
inactive: endpoint: mean survival time, dose: 50.0 mg/kg/injection, schedule: Q01DX009 (ip), vehicle: saline with Tween-80 90 % of control | [4] 90 % of control

O=c1[nH]c2ccc(Cl)cc2c2ccccc12
inactive: endpoint: mean survival time, dose: 100.0 mg/kg/injection, schedule: Q01DX001 (ip), vehicle: carboxymethylcellulose (CMC) 91 % of control | endpoint: mean survival time, dose: 200.0 mg/kg/injection, schedule: Q01DX001 (ip), vehicle: carboxymethylcellulose (CMC) 97 % of control | endpoint: mean survival time, dose: 400.0 mg/kg/injection, schedule: Q01DX001 (ip), vehicle: carboxymethylcellulose (CMC) 105 % of control

CCCCCCCP(=O)(CCCCCCC)CCCCCCC
inactive: endpoint: mean survival time, dose: 25.0 mg/kg/injection, schedule: Q01DX001 (ip), vehicle: saline with Tween-80 107 % of control | endpoint: mean survival time, dose: 50.0 mg/kg/injection, schedule: Q01DX001 (ip), vehicle: saline with Tween-80 96 % of control | [8] 100 % of control

Cc1cc(O)c(Br)c(C)c1Br
inactive: [4] 111 % of control | [1] 104 % of control | [5] 98 % of control | [2] 97 % of control | [6] 106 % of control | [3] 101 % of control

BrCCCCCCCCCCC1(c2ccccc2)OCCO1
inactive: endpoint: mean survival time, dose: 100.0 mg/kg/injection, schedule: Q04DX003 (ip), vehicle: Klucel (hydroxypropylcellulose) (HPC) 90 % of control | endpoint: mean survival time, dose: 200.0 mg/kg/injection, schedule: Q04DX003 (ip), vehicle: Klucel (hydroxypropylcellulose) (HPC) 94 % of control | endpoint: mean survival time, dose: 400.0 mg/kg/injection, schedule: Q04DX003 (ip), vehicle: Klucel (hydroxypropylcellulose) (HPC) 95 % of control

N#Cc1cn(C2OC(CO)C(O)C2O)n2ccnc12 (centres undefined)
inactive: endpoint: median survival time, dose: 12.5 mg/kg/injection, schedule: Q01DX005 (ip), vehicle: water 118 % of control | endpoint: median survival time, dose: 25.0 mg/kg/injection, schedule: Q01DX005 (ip), vehicle: water 102 % of control | endpoint: median survival time, dose: 50.0 mg/kg/injection, schedule: Q01DX005 (ip), vehicle: water 116 % of control | endpoint: median survival time, dose: 100.0 mg/kg/injection, schedule: Q01DX005 (ip), vehicle: water 109 % of control | endpoint: median survival time, dose: 200.0 mg/kg/injection, schedule: Q01DX005 (ip), vehicle: water 115 % of control

COc1ccc(C(=CC2=CC(=O)C3=C(CCCC3)C2=O)c2ccc(OC)cc2)cc1
inactive: endpoint: mean survival time, dose: 100.0 mg/kg/injection, schedule: Q04DX003 (ip), vehicle: saline sonified 96 % of control | endpoint: mean survival time, dose: 200.0 mg/kg/injection, schedule: Q04DX003 (ip), vehicle: saline sonified 100 % of control | endpoint: mean survival time, dose: 400.0 mg/kg/injection, schedule: Q04DX003 (ip), vehicle: saline sonified 97 % of control

CC1C(=O)OC2C1CCC1(C)C(O)OC(=O)C(C)C21 (centres undefined)
inactive: [7] 104 % of control and 96 % of control | [9] 100 % of control and 108 % of control | [10] 100 % of control and 104 % of control

CC(=O)Nc1ccc(-c2c(N)ncc3ccccc23)cc1
inactive: endpoint: mean survival time, dose: 50.0 mg/kg/injection, schedule: Q04DX003 (ip), vehicle: other 94 % of control | [11] 94 % of control | [12] 96 % of control | [13] 100 % of control

c1ccc(-c2nnc(-c3ccccn3)nn2)nc1
inactive: endpoint: mean survival time, dose: 12.5 mg/kg/injection, schedule: Q01DX009 (ip), vehicle: Klucel (hydroxypropylcellulose) (HPC) 103 % of control | endpoint: mean survival time, dose: 25.0 mg/kg/injection, schedule: Q01DX009 (ip), vehicle: Klucel (hydroxypropylcellulose) (HPC) 101 % of control | endpoint: mean survival time, dose: 50.0 mg/kg/injection, schedule: Q01DX009 (ip), vehicle: Klucel (hydroxypropylcellulose) (HPC) 106 % of control | endpoint: mean survival time, dose: 100.0 mg/kg/injection, schedule: Q01DX009 (ip), vehicle: Klucel (hydroxypropylcellulose) (HPC) 101 % of control | endpoint: mean survival time, dose: 200.0 mg/kg/injection, schedule: Q01DX009 (ip), vehicle: Klucel (hydroxypropylcellulose) (HPC) 95 % of control | endpoint: mean survival time, dose: 400.0 mg/kg/injection, schedule: Q01DX009 (ip), vehicle: Klucel (hydroxypropylcellulose) (HPC) 101 % of control

CCON(C(C)=O)c1cccc([N+](=O)[O-])c1
inactive: endpoint: mean survival time, dose: 100.0 mg/kg/injection, schedule: Q01DX001 (ip), vehicle: saline 97 % of control | endpoint: mean survival time, dose: 200.0 mg/kg/injection, schedule: Q01DX001 (ip), vehicle: saline 100 % of control | endpoint: mean survival time, dose: 400.0 mg/kg/injection, schedule: Q01DX001 (ip), vehicle: saline 97 % of control

O=S(=O)(c1ccccc1)C(Cl)Cl
inactive: [11] 95 % of control | [12] 100 % of control | [13] 100 % of control

CC(O)C(C)(C)CO (centres undefined)
inactive: [14] 88 % of control | [15] 88 % of control | [16] 93 % of control

Cc1c(C)c(C(=O)O)c(C)c(C)c1C(=O)O
inactive: [14] 102 % of control | [15] 100 % of control | [16] 96 % of control

NC(=O)Oc1cc(OC(N)=O)cc(N(CCCl)CCCl)c1
inactive: endpoint: mean survival time, dose: 12.5 mg/kg/injection, schedule: Q01DX009 (ip), vehicle: other 103 % of control | endpoint: mean survival time, dose: 25.0 mg/kg/injection, schedule: Q01DX001 (ip), vehicle: water 98 % of control | endpoint: mean survival time, dose: 25.0 mg/kg/injection, schedule: Q01DX009 (ip), vehicle: other 114 % of control | endpoint: mean survival time, dose: 50.0 mg/kg/injection, schedule: Q01DX001 (ip), vehicle: water 108 % of control | endpoint: mean survival time, dose: 50.0 mg/kg/injection, schedule: Q01DX009 (ip), vehicle: other 111 % of control | endpoint: mean survival time, dose: 100.0 mg/kg/injection, schedule: Q01DX001 (ip), vehicle: water 108 % of control | endpoint: mean survival time, dose: 100.0 mg/kg/injection, schedule: Q01DX009 (ip), vehicle: other 116 % of control | endpoint: mean survival time, dose: 200.0 mg/kg/injection, schedule: Q01DX001 (ip), vehicle: water 117 % of control | endpoint: mean survival time, dose: 200.0 mg/kg/injection, schedule: Q01DX009 (ip), vehicle: other 104 % of control | endpoint: mean survival time, dose: 400.0 mg/kg/injection, schedule: Q01DX001 (ip), vehicle: water 120 % of control

Cc1ccc(Cl)cc1NC(=O)OCC(C)C
inactive: [7] 90 % of control | [9] 93 % of control | [10] 90 % of control
